The compounds below were run against AKT1 (PKB alpha) (Homo sapiens, UniProt P31749) (assay: High-throughput kinase assay). Details: 100 nM; read-out: Percent inhibition of kinase activity in vitro, AKT1 (PKB alpha).
Format: biochemical
Protocol: (§1) Screening of Compounds 1-4 against several kinases identified two prominent targets of these compounds as the Aurora A kinase and calcium dependent protein kinase C isoforms α, βI, βII and […] (Tables 1 to 3). IC50s for these two targets were obtained by plotting inhibition levels at 500 nM, 100 nM, 50 nM and 10 nM (FIG. 3). These kinases are directly involved in pathways controlling cell differentiation programs, metastasis signaling, as well as EMT and CSC programming and their overexpression was reported to predict decreased metastasis-free survival.

Chain of AKT1 (PKB alpha) (P31749 whole entry): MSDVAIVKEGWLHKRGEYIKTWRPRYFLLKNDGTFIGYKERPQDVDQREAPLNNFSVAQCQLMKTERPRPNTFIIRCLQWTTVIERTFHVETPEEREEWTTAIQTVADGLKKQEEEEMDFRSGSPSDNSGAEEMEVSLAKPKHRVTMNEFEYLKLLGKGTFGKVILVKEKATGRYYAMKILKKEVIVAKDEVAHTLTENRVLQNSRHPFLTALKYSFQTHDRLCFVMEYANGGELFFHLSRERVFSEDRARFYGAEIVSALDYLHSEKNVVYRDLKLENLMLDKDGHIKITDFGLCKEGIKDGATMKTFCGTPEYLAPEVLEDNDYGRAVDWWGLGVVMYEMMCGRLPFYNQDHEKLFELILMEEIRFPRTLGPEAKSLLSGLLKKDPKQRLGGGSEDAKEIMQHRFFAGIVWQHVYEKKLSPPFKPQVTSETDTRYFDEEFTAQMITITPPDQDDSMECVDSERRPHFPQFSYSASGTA

Row | SMILES | inhibition at 0.1 µM [%]
1 | O=c1c2ccccc2[se]n1-c1nc(NC2CC[Se]C2)c2nc[nH]c2n1 (stereo not shown) [Compound 2] | 4

Same assay, conditions: 500 nM; read-out: Percent inhibition of kinase activity in vitro, AKT1 (PKB alpha)

Row | SMILES | inhibition at 0.5 µM [%]
2 | O=c1c2ccccc2[se]n1-c1nc(NC2CC[Se]C2)c2nc[nH]c2n1 (stereo not shown) [Compound 2] | 15

What follows are compounds tested against SRC (Homo sapiens, UniProt P12931) (assay: High-throughput kinase assay). Details: 100 nM; read-out: Percent inhibition of kinase activity in vitro, SRC.
Chain of SRC (P12931 whole entry): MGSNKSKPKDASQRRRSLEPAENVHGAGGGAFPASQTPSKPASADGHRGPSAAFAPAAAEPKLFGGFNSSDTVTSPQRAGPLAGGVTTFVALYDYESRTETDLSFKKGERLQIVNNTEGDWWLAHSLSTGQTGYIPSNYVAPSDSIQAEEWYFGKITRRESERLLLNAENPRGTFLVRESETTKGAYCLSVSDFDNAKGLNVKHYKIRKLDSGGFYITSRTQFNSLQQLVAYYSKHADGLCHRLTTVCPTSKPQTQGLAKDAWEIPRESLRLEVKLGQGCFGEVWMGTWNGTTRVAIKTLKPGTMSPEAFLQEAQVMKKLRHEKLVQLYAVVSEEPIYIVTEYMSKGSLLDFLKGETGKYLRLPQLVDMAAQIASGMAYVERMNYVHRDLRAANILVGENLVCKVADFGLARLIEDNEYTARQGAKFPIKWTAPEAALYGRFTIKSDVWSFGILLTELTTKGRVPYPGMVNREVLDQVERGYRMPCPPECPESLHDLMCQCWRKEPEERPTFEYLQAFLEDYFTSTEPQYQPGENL
Format: biochemical
Protocol: as §1

Row | SMILES | inhibition at 0.1 µM [%]
3 | O=c1c2ccccc2[se]n1-c1nc(NC2CC[Se]C2)c2nc[nH]c2n1 (stereo not shown) [Compound 2] | 4

Same assay, conditions: 500 nM; read-out: Percent inhibition of kinase activity in vitro, SRC

Row | SMILES | inhibition at 0.5 µM [%]
4 | O=c1c2ccccc2[se]n1-c1nc(NC2CC[Se]C2)c2nc[nH]c2n1 (stereo not shown) [Compound 2] | 7

The compounds below were run against PRKCA (PKC alpha) (Homo sapiens, UniProt P17252) (assay: High-throughput kinase assay). Details: 100 nM; read-out: Percent inhibition of kinase activity in vitro, PRKCA (PKC alpha).
Format: biochemical
Protocol: as §1

Row | SMILES | inhibition at 0.1 µM [%]
5 | O=c1c2ccccc2[se]n1-c1nc(NC2CC[Se]C2)c2nc[nH]c2n1 (stereo not shown) [Compound 2] | 84

Same assay, conditions: 500 nM; read-out: Percent inhibition of kinase activity in vitro, PRKCA (PKC alpha)

Row | SMILES | inhibition at 0.5 µM [%]
6 | O=c1c2ccccc2[se]n1-c1nc(NC2CC[Se]C2)c2nc[nH]c2n1 (stereo not shown) [Compound 2] | 96

The compounds below were run against YES1 (Homo sapiens, UniProt P07947) (assay: High-throughput kinase assay). Details: 100 nM; read-out: Percent inhibition of kinase activity in vitro, YES1.
Chain of YES1 (P07947 whole entry): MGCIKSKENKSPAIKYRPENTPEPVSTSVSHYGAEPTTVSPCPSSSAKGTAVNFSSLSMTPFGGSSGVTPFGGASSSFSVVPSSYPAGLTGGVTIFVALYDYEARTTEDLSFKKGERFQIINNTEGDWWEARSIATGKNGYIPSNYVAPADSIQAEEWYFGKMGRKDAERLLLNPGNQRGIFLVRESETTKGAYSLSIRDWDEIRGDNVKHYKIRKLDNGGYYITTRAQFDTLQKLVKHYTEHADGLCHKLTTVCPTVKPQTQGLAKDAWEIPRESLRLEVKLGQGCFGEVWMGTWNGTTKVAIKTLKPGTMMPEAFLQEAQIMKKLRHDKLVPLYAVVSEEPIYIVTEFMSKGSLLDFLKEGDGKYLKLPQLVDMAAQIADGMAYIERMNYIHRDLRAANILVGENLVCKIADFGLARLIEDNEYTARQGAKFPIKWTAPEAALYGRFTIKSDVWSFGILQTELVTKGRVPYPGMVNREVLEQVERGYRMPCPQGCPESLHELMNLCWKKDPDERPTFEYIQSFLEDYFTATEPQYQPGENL
Format: biochemical
Protocol: as §1

Row | SMILES | inhibition at 0.1 µM [%]
7 | O=c1c2ccccc2[se]n1-c1nc(NC2CC[Se]C2)c2nc[nH]c2n1 (stereo not shown) [Compound 2] | 22

Same assay, conditions: 500 nM; read-out: Percent inhibition of kinase activity in vitro, YES1

Row | SMILES | inhibition at 0.5 µM [%]
8 | O=c1c2ccccc2[se]n1-c1nc(NC2CC[Se]C2)c2nc[nH]c2n1 (stereo not shown) [Compound 2] | 35

The compounds below were run against RET (Homo sapiens, UniProt P07949) (assay: High-throughput kinase assay). Details: 100 nM; read-out: Percent inhibition of kinase activity in vitro, RET.
Format: biochemical
Protocol: as §1

Row | SMILES | inhibition at 0.1 µM [%]
9 | O=c1c2ccccc2[se]n1-c1nc(NC2CC[Se]C2)c2nc[nH]c2n1 (stereo not shown) [Compound 2] | 6

Same assay, conditions: 500 nM; read-out: Percent inhibition of kinase activity in vitro, RET

Row | SMILES | inhibition at 0.5 µM [%]
10 | O=c1c2ccccc2[se]n1-c1nc(NC2CC[Se]C2)c2nc[nH]c2n1 (stereo not shown) [Compound 2] | 18

Each compound was assayed against MET (cMet) (Homo sapiens, UniProt P08581) (assay: High-throughput kinase assay). Details: 100 nM; read-out: Percent inhibition of kinase activity in vitro, MET (cMet).
Chain of MET (cMet) (P08581 25-1390): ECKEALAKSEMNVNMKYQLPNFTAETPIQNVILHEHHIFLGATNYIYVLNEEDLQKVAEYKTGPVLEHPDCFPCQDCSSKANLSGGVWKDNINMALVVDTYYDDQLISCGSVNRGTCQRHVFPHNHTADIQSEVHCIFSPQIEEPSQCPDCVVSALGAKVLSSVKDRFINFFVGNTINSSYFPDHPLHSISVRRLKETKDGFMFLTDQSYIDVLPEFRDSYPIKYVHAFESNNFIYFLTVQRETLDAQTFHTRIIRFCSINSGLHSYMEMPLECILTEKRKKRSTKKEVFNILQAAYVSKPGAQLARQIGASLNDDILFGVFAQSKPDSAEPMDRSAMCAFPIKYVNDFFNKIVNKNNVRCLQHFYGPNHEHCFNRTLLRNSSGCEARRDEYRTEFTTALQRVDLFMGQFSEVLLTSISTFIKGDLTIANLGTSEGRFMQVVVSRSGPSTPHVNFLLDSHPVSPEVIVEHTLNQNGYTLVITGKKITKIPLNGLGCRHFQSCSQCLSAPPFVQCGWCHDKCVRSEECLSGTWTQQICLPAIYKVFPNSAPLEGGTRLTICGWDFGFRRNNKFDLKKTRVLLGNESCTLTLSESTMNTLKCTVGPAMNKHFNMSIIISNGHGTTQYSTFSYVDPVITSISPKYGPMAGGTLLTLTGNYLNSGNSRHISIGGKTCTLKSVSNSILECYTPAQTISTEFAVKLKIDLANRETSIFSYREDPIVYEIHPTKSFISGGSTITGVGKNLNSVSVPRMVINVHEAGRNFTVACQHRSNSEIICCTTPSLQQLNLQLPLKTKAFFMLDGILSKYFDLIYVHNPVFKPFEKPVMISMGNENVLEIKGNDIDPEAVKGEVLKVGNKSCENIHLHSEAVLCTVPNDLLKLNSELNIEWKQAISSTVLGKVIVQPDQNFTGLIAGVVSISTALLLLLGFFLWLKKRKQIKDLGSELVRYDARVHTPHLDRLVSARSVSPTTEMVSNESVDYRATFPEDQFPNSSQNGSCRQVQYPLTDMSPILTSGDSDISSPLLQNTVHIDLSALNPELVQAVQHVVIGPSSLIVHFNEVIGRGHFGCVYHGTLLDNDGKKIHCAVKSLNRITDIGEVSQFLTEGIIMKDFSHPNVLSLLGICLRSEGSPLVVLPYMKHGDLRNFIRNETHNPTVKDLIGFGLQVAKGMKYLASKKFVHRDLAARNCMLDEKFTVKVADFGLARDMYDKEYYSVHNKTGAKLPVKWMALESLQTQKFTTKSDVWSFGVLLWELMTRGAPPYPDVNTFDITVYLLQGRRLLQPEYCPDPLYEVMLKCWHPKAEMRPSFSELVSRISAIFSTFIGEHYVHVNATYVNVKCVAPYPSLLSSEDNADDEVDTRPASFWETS
Format: biochemical
Protocol: as §1

Row | SMILES | inhibition at 0.1 µM [%]
11 | O=c1c2ccccc2[se]n1-c1nc(NC2CC[Se]C2)c2nc[nH]c2n1 (stereo not shown) [Compound 2] | 1

Same assay, conditions: 500 nM; read-out: Percent inhibition of kinase activity in vitro, MET (cMet)

Row | SMILES | inhibition at 0.5 µM [%]
12 | O=c1c2ccccc2[se]n1-c1nc(NC2CC[Se]C2)c2nc[nH]c2n1 (stereo not shown) [Compound 2] | 5

The compounds below were run against PIK3CA/PIK3R1 (Homo sapiens, UniProt P42336) (assay: High-throughput kinase assay). Details: 100 nM; read-out: Percent inhibition of kinase activity in vitro, PIK3CA/PIK3R1.
Format: biochemical
Protocol: as §1

Row | SMILES | inhibition at 0.1 µM [%]
13 | O=c1c2ccccc2[se]n1-c1nc(NC2CC[Se]C2)c2nc[nH]c2n1 (stereo not shown) [Compound 2] | 0

Same assay, conditions: 500 nM; read-out: Percent inhibition of kinase activity in vitro, PIK3CA/PIK3R1

Row | SMILES | inhibition at 0.5 µM [%]
14 | O=c1c2ccccc2[se]n1-c1nc(NC2CC[Se]C2)c2nc[nH]c2n1 (stereo not shown) [Compound 2] | 62

The compounds below were run against RAF1 (cRAF) Y340D Y341D (Homo sapiens, UniProt P04049, Y340D/Y341D) (assay: High-throughput kinase assay). Details: 500 nM; read-out: Percent inhibition of kinase activity in vitro, RAF1 (cRAF) Y340D Y341D.
Format: biochemical
Protocol: as §1

Row | SMILES | inhibition at 0.5 µM [%]
15 | O=c1c2ccccc2[se]n1-c1nc(NC2CC[Se]C2)c2nc[nH]c2n1 (stereo not shown) [Compound 2] | 0

Each compound was assayed against IGF1R (Homo sapiens, UniProt P08069) (assay: High-throughput kinase assay). Details: 500 nM; read-out: Percent inhibition of kinase activity in vitro, IGF1R.
Format: biochemical
Protocol: as §1

Row | SMILES | inhibition at 0.5 µM [%]
16 | O=c1c2ccccc2[se]n1-c1nc(NC2CC[Se]C2)c2nc[nH]c2n1 (stereo not shown) [Compound 2] | 11

Each compound was assayed against FGFR1 (Homo sapiens, UniProt P11362) (assay: High-throughput kinase assay). Details: 500 nM; read-out: Percent inhibition of kinase activity in vitro, FGFR1.
Format: biochemical
Protocol: as §1

Row | SMILES | inhibition at 0.5 µM [%]
17 | O=c1c2ccccc2[se]n1-c1nc(NC2CC[Se]C2)c2nc[nH]c2n1 (stereo not shown) [Compound 2] | 0

What follows are compounds tested against PTK2 (FAK) (Homo sapiens, UniProt Q05397) (assay: High-throughput kinase assay). Details: 100 nM; read-out: Percent inhibition of kinase activity in vitro, PTK2 (FAK).
Chain of PTK2 (FAK) (Q05397 whole entry): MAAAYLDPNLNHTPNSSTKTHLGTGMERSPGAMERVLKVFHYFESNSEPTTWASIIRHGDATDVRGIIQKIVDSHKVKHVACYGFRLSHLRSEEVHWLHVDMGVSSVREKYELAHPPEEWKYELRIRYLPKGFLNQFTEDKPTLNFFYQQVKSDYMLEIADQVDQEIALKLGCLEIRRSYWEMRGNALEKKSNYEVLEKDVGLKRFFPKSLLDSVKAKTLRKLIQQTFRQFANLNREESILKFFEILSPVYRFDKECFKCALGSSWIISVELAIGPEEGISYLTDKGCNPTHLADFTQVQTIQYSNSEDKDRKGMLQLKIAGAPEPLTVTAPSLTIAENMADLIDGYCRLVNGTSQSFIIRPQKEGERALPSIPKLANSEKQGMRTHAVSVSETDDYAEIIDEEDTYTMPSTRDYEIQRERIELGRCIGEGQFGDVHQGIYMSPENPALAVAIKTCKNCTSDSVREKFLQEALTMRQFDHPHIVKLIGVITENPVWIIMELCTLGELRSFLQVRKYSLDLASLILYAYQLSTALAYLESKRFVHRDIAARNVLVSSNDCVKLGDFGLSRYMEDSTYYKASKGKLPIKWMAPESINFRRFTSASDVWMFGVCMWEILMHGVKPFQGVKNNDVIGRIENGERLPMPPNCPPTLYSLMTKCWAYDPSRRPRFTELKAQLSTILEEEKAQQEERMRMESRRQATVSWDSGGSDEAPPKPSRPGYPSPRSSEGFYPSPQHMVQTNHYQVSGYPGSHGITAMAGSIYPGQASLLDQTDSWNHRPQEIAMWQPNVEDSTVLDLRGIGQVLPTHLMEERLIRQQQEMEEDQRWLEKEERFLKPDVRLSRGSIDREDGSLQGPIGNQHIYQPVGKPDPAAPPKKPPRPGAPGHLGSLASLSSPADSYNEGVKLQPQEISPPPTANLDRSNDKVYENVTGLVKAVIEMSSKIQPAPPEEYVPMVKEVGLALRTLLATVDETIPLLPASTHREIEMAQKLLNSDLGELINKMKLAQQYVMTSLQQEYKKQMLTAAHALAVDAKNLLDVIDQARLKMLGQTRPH
Format: biochemical
Protocol: as §1

Row | SMILES | inhibition at 0.1 µM [%]
18 | O=c1c2ccccc2[se]n1-c1nc(NC2CC[Se]C2)c2nc[nH]c2n1 (stereo not shown) [Compound 2] | 5

Same assay, conditions: 500 nM; read-out: Percent inhibition of kinase activity in vitro, PTK2 (FAK)

Row | SMILES | inhibition at 0.5 µM [%]
19 | O=c1c2ccccc2[se]n1-c1nc(NC2CC[Se]C2)c2nc[nH]c2n1 (stereo not shown) [Compound 2] | 7

These compounds were tested against T1, AURKA (Aurora A) (Homo sapiens, UniProt O14965) (assay: High-throughput kinase assay). Details: 100 nM; read-out: Percent inhibition of kinase activity in vitro, AURKA (Aurora A).
T1 sequence (O14965 1-403): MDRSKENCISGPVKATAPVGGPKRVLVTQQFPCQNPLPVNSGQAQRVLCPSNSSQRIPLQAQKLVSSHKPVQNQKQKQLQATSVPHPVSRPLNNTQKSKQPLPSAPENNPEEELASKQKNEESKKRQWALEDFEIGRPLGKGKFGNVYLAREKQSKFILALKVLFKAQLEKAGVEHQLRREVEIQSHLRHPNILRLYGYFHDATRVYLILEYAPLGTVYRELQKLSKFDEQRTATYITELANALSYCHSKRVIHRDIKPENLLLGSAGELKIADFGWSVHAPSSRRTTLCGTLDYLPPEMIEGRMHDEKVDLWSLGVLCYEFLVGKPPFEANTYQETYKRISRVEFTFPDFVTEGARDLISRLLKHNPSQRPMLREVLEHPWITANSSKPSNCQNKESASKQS
Format: biochemical
Protocol: as §1

Row | SMILES | inhibition at 0.1 µM [%]
20 | O=c1c2ccccc2[se]n1-c1nc(NC2CC[Se]C2)c2nc[nH]c2n1 (stereo not shown) [Compound 2] | 93

Same assay, conditions: 500 nM; read-out: Percent inhibition of kinase activity in vitro, AURKA (Aurora A)

Row | SMILES | inhibition at 0.5 µM [%]
21 | O=c1c2ccccc2[se]n1-c1nc(NC2CC[Se]C2)c2nc[nH]c2n1 (stereo not shown) [Compound 2] | 97

Each compound was assayed against FRAP1 (mTOR) (Homo sapiens, UniProt P42345) (assay: High-throughput kinase assay). Details: 500 nM; read-out: Percent inhibition of kinase activity in vitro, FRAP1 (mTOR).
Format: biochemical
Protocol: as §1

Row | SMILES | inhibition at 0.5 µM [%]
22 | O=c1c2ccccc2[se]n1-c1nc(NC2CC[Se]C2)c2nc[nH]c2n1 (stereo not shown) [Compound 2] | 5

The compounds below were run against FLT1 (VEGFR1) (Homo sapiens, UniProt P17948) (assay: High-throughput kinase assay). Details: 500 nM; read-out: Percent inhibition of kinase activity in vitro, FLT1 (VEGFR1).
Format: biochemical
Protocol: as §1

Row | SMILES | inhibition at 0.5 µM [%]
23 | O=c1c2ccccc2[se]n1-c1nc(NC2CC[Se]C2)c2nc[nH]c2n1 (stereo not shown) [Compound 2] | 5

What follows are compounds tested against LCK (Homo sapiens, UniProt P06239) (assay: High-throughput kinase assay). Details: 100 nM; read-out: Percent inhibition of kinase activity in vitro, LCK.
Chain of LCK (P06239 whole entry): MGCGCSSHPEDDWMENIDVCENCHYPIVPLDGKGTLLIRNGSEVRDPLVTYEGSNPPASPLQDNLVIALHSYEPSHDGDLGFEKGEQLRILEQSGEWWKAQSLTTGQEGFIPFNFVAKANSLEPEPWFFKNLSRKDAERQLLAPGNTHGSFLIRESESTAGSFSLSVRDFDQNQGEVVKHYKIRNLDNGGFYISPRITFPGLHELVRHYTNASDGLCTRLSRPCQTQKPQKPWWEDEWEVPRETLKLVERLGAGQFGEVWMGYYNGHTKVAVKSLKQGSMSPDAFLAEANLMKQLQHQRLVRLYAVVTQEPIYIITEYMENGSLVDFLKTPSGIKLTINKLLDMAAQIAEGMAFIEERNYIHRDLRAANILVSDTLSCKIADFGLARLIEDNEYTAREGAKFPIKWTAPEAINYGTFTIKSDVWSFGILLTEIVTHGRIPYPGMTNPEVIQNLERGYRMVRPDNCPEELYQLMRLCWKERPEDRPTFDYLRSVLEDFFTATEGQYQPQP
Format: biochemical
Protocol: as §1

Row | SMILES | inhibition at 0.1 µM [%]
24 | O=c1c2ccccc2[se]n1-c1nc(NC2CC[Se]C2)c2nc[nH]c2n1 (stereo not shown) [Compound 2] | 10

Same assay, conditions: 500 nM; read-out: Percent inhibition of kinase activity in vitro, LCK

Row | SMILES | inhibition at 0.5 µM [%]
25 | O=c1c2ccccc2[se]n1-c1nc(NC2CC[Se]C2)c2nc[nH]c2n1 (stereo not shown) [Compound 2] | 14

These compounds were tested against EEF2K (Homo sapiens, UniProt O00418) (assay: High-throughput kinase assay). Details: 500 nM; read-out: Percent inhibition of kinase activity in vitro, EEF2K.
Format: biochemical
Protocol: as §1

Row | SMILES | inhibition at 0.5 µM [%]
26 | O=c1c2ccccc2[se]n1-c1nc(NC2CC[Se]C2)c2nc[nH]c2n1 (stereo not shown) [Compound 2] | 11

What follows are compounds tested against JAK2 (Homo sapiens, UniProt O60674) (assay: High-throughput kinase assay). Details: 100 nM; read-out: Percent inhibition of kinase activity in vitro, JAK2.
Format: biochemical
Protocol: as §1

Row | SMILES | inhibition at 0.1 µM [%]
27 | O=c1c2ccccc2[se]n1-c1nc(NC2CC[Se]C2)c2nc[nH]c2n1 (stereo not shown) [Compound 2] | 15

Same assay, conditions: 500 nM; read-out: Percent inhibition of kinase activity in vitro, JAK2

Row | SMILES | inhibition at 0.5 µM [%]
28 | O=c1c2ccccc2[se]n1-c1nc(NC2CC[Se]C2)c2nc[nH]c2n1 (stereo not shown) [Compound 2] | 13
